Measured values reported in US11820827B2, “Methods of treating myelodysplastic syndrome and acute myeloid leukemia with nonfucosylated anti-CD70 antibodies” (Seagen Inc., priority 2019, dated 2023).
Values joined by “and” are separate entries in the source; they are usually repeats but may differ in a detail not shown here. Identical values can stand only once.

How the values were obtained:
[1] = tested on: MV4-11 AML xenograft; experiment: Tumor growth in the MV4-11 AML xenograft model, SEA-CD70 and azacitidine (Example 10); format: in vivo, SCID mice
[2] = tested on: MV4-11 AML xenograft; experiment: Tumor growth in the MV4-11 AML xenograft model, SEA-CD70, azacitidine, venetoclax (Example 11); format: in vivo, SCID mice; settings: antibody 10 mg/kg Q4dx5, azacitidine 2 mg/kg Q1dx5 3 cycles, venetoclax 25 mg/kg oral Q1dx21; comparisons at day 39
Description: Tumor growth was reported as a volume and calculated as an average across animals within each treatment group (FIG. 11A). Immunocompromised SCID mice were implanted with 5×10e6 MV4-11 cells subcutaneously in the flank on day 0. When mean tumor size of 50 mm^3 (measured by using the formula: Volume (mm^3)=0.5*Length*Width^2, where the length is the longer dimension) was reached, mice were randomized into treatment groups of 10 mice per group. Stock concentrations of antibody and chemotherapy were diluted to the appropriate concentration and injected into animals at 10 μl/g of body weight. Tumor length and width, and animal weight were measured two times weekly throughout the study and tumor volume was calculated using the formula above. Animals were followed until tumor volume measured ˜1000 mm^3, at which time the animals were euthanized. Animals were dosed on various schedules based on treatment received; animals receiving antibody were treated with 10 mg/kg of antibody (Q4dx5), azacitidine-treated animals were dosed daily (2 mg/kg) for five consecutive days (Q1dx5) each week, for a total of 3 cycles (3 weeks); venetoclax was given at 25 mg/kg every day by oral gavage for 21 days consecutively (Q1dx21). Animal receiving combination of treatments received each treatment at the same dose and schedule as the single treatments.

[3] = tested on: MV-411 acute myeloid leukemia model; experiment: Tumor growth in the MV-411 acute myeloid leukemia xenograft model (Example 7); format: in vivo, SCID mice
[4] = tested on: MOLM-13 CD70+ AML cell line; experiment: CDC with normal human serum, MOLM-13; format: cell-based; settings: normal human serum not heat inactivated
Experimental: (§1) AML cell lines positive for CD70 were fluorescently labeled and treated with increasing concentrations of CD70 directed antibodies. Cells were then exposed to human compliment and lysis determined as release of fluorescent dye.
(§2) The following protocol was used to assess CDC activity on AML cell lines: • 1. Cells were incubated with […] anti-CRP monoclonal antibodies mix (anti-hCD46, anti-hCD55, anti-hCD59) for 30 minutes on ice. • 2. Cells were washed and plated (200,000 cells/well) in media containing non-heat-inactivated serum, Sytox Green (Life technology), and antibodies, which were added at the indicated final concentration, for 2 hours at 37° C. • 3. Cell dead was quantified by detecting Sitox Green fluorescent signal on an Envison plate reader (Perkin Elmer) and normalized over positive control (1% Triton X-100 treated cells).

[5] = tested on: T regulatory cells (Treg) in PBMCs; experiment: Treg depletion in PBMCs; format: cell-based, human; settings: 24 hours
Experimental: (§3) At the end of the experiment cells were stained with Zombie Aqua Viability Dye and total viable Treg naïve and memory CD4 and CD8 T cell numbers were assessed. […] Fucosylated (WT Clone 13 IgG1) and nonfucosylated (SEA Clone 13 IgG1) antibodies targeting TIGIT were used as positive controls (FIG. 4E-4H).

[6] = tested on: NOMO-1 CD70+ AML cell line; experiment: CDC with normal human serum, NOMO-1; format: cell-based; settings: normal human serum not heat inactivated
Experimental: as §1, §2

[7] = target: T1, hFcγRIIIa V158 (Homo sapiens, UniProt P08637, F176V); experiment: BLI binding kinetics to high affinity FcγRIIIa (158V) receptor variant; settings: 1:1 Langmuir global fit
T1 construct: made in house
T1 sequence (P08637 17-208 F176V): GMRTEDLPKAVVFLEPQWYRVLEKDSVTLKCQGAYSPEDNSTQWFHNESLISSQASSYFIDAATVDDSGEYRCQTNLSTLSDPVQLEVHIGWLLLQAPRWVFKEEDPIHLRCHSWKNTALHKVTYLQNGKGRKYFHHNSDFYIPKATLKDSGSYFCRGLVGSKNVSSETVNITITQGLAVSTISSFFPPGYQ

[8] = tested on: NOMO-1 CD70+ target cells; experiment: ADCP with monocyte-derived macrophages, NOMO-1; format: cell-based, human; settings: flow cytometry, antibody dose-dependent
Experimental: (§4) Phagocytosis of fluorescently labeled target cells was determined by flow cytometry. Phagocytosis was measured for the appearance of double-labeled coincident events (fluorescent target cells) and anti-CD11c positivity to identify monocyte/macrophages.
(§5) The following protocol was used to assess […] activity on AML cell lines: • 1. Target cells were labeled using the PKH26 Red Fluorescent Cell Linker Mini Kit (Sigma Aldrich) and following the manufacturer's instructions. • 2. Cells (4000 cells/well) were incubated with the indicated test articles for 30 minutes, washed and resuspended in RPMI plus 10% ultra-low IgG FBS. • 3. PBMC-derived macrophages (100,000 cells/well), generated by incubating PBMC-derived monocytes with 500 U/mL (50 ng/mL) GM-CSF for 10-12 days, were added to the target cells and incubated at 37° C. for 2 hours. • 4. Plates were centrifuged and cells resuspended in 100 μl of APC-CD11 antibody (macrophage marker) and incubated on ice for 30 minutes. • 5. Cells were washed, resuspended in PBS and analyzed by flow cytometry to determine the percentage of phagocytosis

[9] = tested on: MOLM-13 CD70+ target cells; experiment: ADCP with monocyte-derived macrophages, MOLM-13; format: cell-based, human; settings: flow cytometry, antibody dose-dependent
Experimental: as §4, §5

[10] = tested on: CD8 T cells in PBMCs; experiment: CD8 T cell depletion in PBMCs; format: cell-based, human; settings: 24 hours
Experimental: as §3

[11] = antibody 10 mg/kg Q4dx5, azacitidine 2 mg/kg Q1dx5 for 3 cycles

Nc1ncn([C@@H]2O[C@H](CO)[C@@H](O)[C@H]2O)c(=O)n1 [azacitidine]
effect on tumor growth [1, 11]: reduce tumor growth
average time for tumors to reach a 10× fold change ([1]; antibody 10 mg/kg Q4dx5, azacitidine 2 mg/kg Q1dx5 for 3 cycles, intraperitoneally, untreated 17.82 days): 26.59 days
delay in tumor growth ([1]; from time to 10× fold change compared to untreated control): 33%
effect on tumor growth [2]: delay tumor growth
tumor volume, individual animals ([3]; Vidaza 5 mg/kg Q4dx4, day 9 post implant): 45.0 mm^3 and 50.0 mm^3 and 49.9 mm^3 and 57.6 mm^3 and 59.5 mm^3 and 55.2 mm^3
tumor volume, individual animals ([3]; Vidaza 5 mg/kg Q4dx4, day 13 post implant): 47.9 mm^3 and 47.5 mm^3 and 73.3 mm^3 and 50.9 mm^3 and 84.1 mm^3 and 65.6 mm^3
tumor volume, individual animals ([3]; Vidaza 5 mg/kg Q4dx4, day 16 post implant): 35.9 mm^3 and 42.5 mm^3 and 48.9 mm^3 and 47.2 mm^3 and 99.2 mm^3 and 70.8 mm^3
tumor volume, individual animals ([3]; Vidaza 5 mg/kg Q4dx4, day 20 post implant): 45.2 mm^3 and 47.1 mm^3 and 86.6 mm^3 and 69.9 mm^3 and 162.6 mm^3 and 63.4 mm^3
tumor volume, individual animals ([3]; Vidaza 5 mg/kg Q4dx4, day 24 post implant): 74.2 mm^3 and 66.4 mm^3 and 136.7 mm^3 and 125.0 mm^3 and 301.0 mm^3 and 92.0 mm^3
tumor volume, individual animals ([3]; Vidaza 5 mg/kg Q4dx4, day 27 post implant): 141.5 mm^3 and 129.0 mm^3 and 344.5 mm^3 and 295.9 mm^3 and 465.4 mm^3 and 202.5 mm^3
tumor volume, individual animals ([3]; Vidaza 5 mg/kg Q4dx4, day 30 post implant): 161.8 mm^3 and 130.7 mm^3 and 469.6 mm^3 and 379.5 mm^3 and 778.9 mm^3 and 279.0 mm^3
tumor volume, individual animals ([3]; Vidaza 5 mg/kg Q4dx4, day 34 post implant): 303.9 mm^3 and 260.2 mm^3 and 649.8 mm^3 and 640.9 mm^3 and 1238.8 mm^3 and 451.9 mm^3
tumor volume, individual animals ([3]; Vidaza 5 mg/kg Q4dx4, day 38 post implant): 568.7 mm^3 and 452.8 mm^3 and 1164.6 mm^3 and 993.8 mm^3 and 740.5 mm^3
tumor volume, individual animals ([3]; Vidaza 5 mg/kg Q4dx4, day 41 post implant): 978.2 mm^3 and 688.1 mm^3 and 1063.7 mm^3
delay in tumor growth ([3]; from time to 10× fold change versus untreated, h1F6SEA 10 mg/kg, azacitidine 5 mg/kg): 20.5%
average time for tumors to reach a 10× fold change ([3]; h1F6SEA 10 mg/kg, azacitidine 5 mg/kg, Q4dx4 intraperitoneally, untreated 26.8 days): 33.68 days

h1F6G1V1: antibody comprising the same CDRs as SEA-CD70, but inactivating backbone mutations (E233P, L234V, L235A) reducing Fcgamma receptor binding
effect on tumor growth [1, 11]: not effective in reducing tumor growth
tumor volume, individual animals ([3]; h1F6G1V1 20 mg/kg Q4dx4, day 9 post implant, 20 mg/kg): 48.0 mm^3 and 62.8 mm^3 and 51.3 mm^3 and 49.1 mm^3 and 52.1 mm^3 and 58.2 mm^3
tumor volume, individual animals ([3]; h1F6G1V1 20 mg/kg Q4dx4, day 13 post implant, 20 mg/kg): 46.1 mm^3 and 64.4 mm^3 and 65.7 mm^3 and 61.5 mm^3 and 56.8 mm^3 and 65.4 mm^3
tumor volume, individual animals ([3]; h1F6G1V1 20 mg/kg Q4dx4, day 16 post implant, 20 mg/kg): 59.3 mm^3 and 109.1 mm^3 and 97.7 mm^3 and 68.1 mm^3 and 64.7 mm^3 and 103.8 mm^3
tumor volume, individual animals ([3]; h1F6G1V1 20 mg/kg Q4dx4, day 20 post implant, 20 mg/kg): 91.5 mm^3 and 234.8 mm^3 and 241.3 mm^3 and 80.6 mm^3 and 104.4 mm^3 and 127.2 mm^3
tumor volume, individual animals ([3]; h1F6G1V1 20 mg/kg Q4dx4, day 24 post implant, 20 mg/kg): 188.7 mm^3 and 449.2 mm^3 and 338.1 mm^3 and 96.3 mm^3 and 198.9 mm^3 and 274.9 mm^3
tumor volume, individual animals ([3]; h1F6G1V1 20 mg/kg Q4dx4, day 27 post implant, 20 mg/kg): 306.6 mm^3 and 606.7 mm^3 and 567.6 mm^3 and 213.6 mm^3 and 325.4 mm^3 and 433.0 mm^3
tumor volume, individual animals ([3]; h1F6G1V1 20 mg/kg Q4dx4, day 30 post implant, 20 mg/kg): 474.6 mm^3 and 1156.6 mm^3 and 1039.1 mm^3 and 325.4 mm^3 and 470.6 mm^3 and 847.7 mm^3
tumor volume, individual animals ([3]; h1F6G1V1 20 mg/kg Q4dx4, day 34 post implant, 20 mg/kg): 782.9 mm^3 and 709.0 mm^3 and 1001.0 mm^3 and 1081.8 mm^3
tumor volume, individual animals ([3]; h1F6G1V1 20 mg/kg Q4dx4, day 38 post implant, 20 mg/kg): 1269.5 mm^3 and 1330.9 mm^3

B1: SGN-70: fucosylated parent anti-CD70 antibody (h1F6) of SEA-CD70 (antibody, chains of the INN, looked up, V domains shown)
VH: QVQLVQSGAEVKKPGASVKVSCKASGYTFTNYGMNWVRQAPGQGLKWMGWINTYTGEPTYADAFKGRVTMTRDTSISTAYMELSRLRSDDTAVYYCARDYGDYGMDYWGQGTTVTVSS
VL: DIVMTQSPDSLAVSLGERATINCRASKSVSTSGYSFMHWYQQKPGQPPKLLIYLASNLESGVPDRFSGSGSGTDFTLTISSLQAEDVAVYYCQHSREVPWTFGQGTKVEIK
cell lysis by complement fixation [4]: lysed in an antibody-specific, dose-dependent manner
T regulatory cell depletion ([5]; donor homozygous for high affinity FcγRIIIa (V/V 158)): resulted in T regulatory cell depletion
T regulatory cell depletion ([5]; donor homozygous for low affinity FcγRIIIa (F/F 158)): Neither CD70 targeting antibody induced T regulatory cell depletion
cell lysis by complement fixation [6]: lysed in an antibody-specific, dose-dependent manner
Kd [7]: 860 nM
phagocytosis of antibody-coated target cells by macrophages [8]: readily phagocytosed target cells
phagocytosis of antibody-coated target cells by macrophages [9]: readily phagocytosed target cells
CD8+ cell depletion ([10]; V/V high affinity donor): Neither fucosylated nor nonfucosylated anti-CD70 antibodies depleted CD8+ cells
CD8+ cell depletion ([10]; low affinity (F/F 158) donor): Neither fucosylated nor nonfucosylated anti-CD70 antibodies depleted CD8+ cells
